The values that follow come from patent US20040191811A1, “Methods for measuring levels of uridine-diphosphate-N-acetylglucosamine and activity of inhibitors thereof” (priority 2002, published 2004).

Like-named read-outs stand apart in the source and are kept apart here.

One assay concerns the target T1, GFAT-beta (Homo sapiens, UniProt O94808).
T1 construct: made in house; host or cells: SF9 insect cells (sonicated, centrifuged cell extract, not purified)
Put plainly: GFAT-beta inhibition, microtiter plate glucosamine 6-phosphate assay. Format: biochemical. On the procedure:
Stimulation of GFAT activity. […] For most testing, a 60-minute incubation at 37° C. is carried out in 96 well microtiter plates. To give the best heat transfer the plates are sealed with a Costar plate sealer and floated on a 37° C. water bath. Air bubbles are removed from the bottom of the plate to ensure proper heat transfer to all wells. […] A mixture of the incubation reagents is kept on ice and the enzyme is added to the mixture just before addition to the plate. Additional incubation mixture is kept on ice to add to standard and control samples. […] If test agents are to be used, 10 μl is added to the appropriate wells and the vehicle is added to the control wells before addition of the incubation mixture. 15 wells are left blank for addition of control and standard glucosamine 6-phosphate samples. After the incubation, 10 μl of the standards made up in the appropriate vehicle (DMSO) are added to the appropriate wells.

The target of the next assay is T2, GFAT-alpha (Homo sapiens, UniProt Q06210).
T2 construct: made in house; host or cells: SF9 insect cells (sonicated, centrifuged cell extract, not purified)
Put plainly: GFAT-alpha inhibition, microtiter plate glucosamine 6-phosphate assay. Conditions: enzyme expressed in SF9 insect cells; glutamine 10 mM, fructose 6-phosphate 10 mM; 60 minutes at 37° C. Format: biochemical. On the procedure: Enzyme preparation. GFAT-alpha (GenBank Accession No. M90516) and GFAT-beta (Accession No. AB016789) are cloned into pET12 and pEF-BOS C vectors (New England BioLabs) for transfection into SF9 and Hi5 insect cells, COS, type 293 cells, and E.coli. Endogenous activity for each cell line was also measured in non-transfected cells. The enzymes are expressed in each cell line by growing in large 24×24 cm plates and harvesting 20 hours after transfection. The media is removed and the plates are washed in 15 ml PBS. 1.5 ml of a lysis buffer (PBS 1×, KCl 50 mM, EDTA 10 mM, with protease inhibitors leupeptin 10 ug/ml, PMSF 20 ug/ml, A-protinin 30 ug/ml, and pepstatin 10 ug/ml) is added to each plate and the cells are removed using a large plastic cell scraper. […] The cell #/lysis volume is about 4×10^7cell/ml. The suspension is sonicated on ice (Branson sonicator setting 2.5 to 3) for 15 seconds using a microtip. The sonicated cell extracts are stored in microfuge tubes at −80° C. Before use, the extracts are centrifuged at 15000×g for 5 minutes at 4° C. Each enzyme preparation is titrated to determine the volume that gives between 20 to 30 umoles of glucosamine 6-phosphate in a reaction mixture in a 60-minute incubation at 37° C. (FIGS. 1A and 1B).
Stimulation of GFAT activity. […] For most testing, a 60-minute incubation at 37° C. is carried out in 96 well microtiter plates. To give the best heat transfer the plates are sealed with a Costar plate sealer and floated on a 37° C. water bath. Air bubbles are removed from the bottom of the plate to ensure proper heat transfer to all wells. The 100 μl reaction volume consists of glutamine 10 mM, fructose 6-phosphate 10 mM, PBS 1×, EDTA 5 mM, DTT 1 mM and the enzyme preparation. A mixture of the incubation reagents is kept on ice and the enzyme is added to the mixture just before addition to the plate. Additional incubation mixture is kept on ice to add to standard and control samples. […] If test agents are to be used, 10 μl is added to the appropriate wells and the vehicle is added to the control wells before addition of the incubation mixture. […] A concentration range of 2.5 to 30 umoles is in the linear portion of the curve and covers the quantity of glucosamine 6-phosphate produced under the incubation conditions (FIG. 4). The cold mixture is added to the standard sample wells and the glucosamine 6-phosphate is then measured.
Measurement of glucosamine 6-phosphate The reaction is started by adding the incubation mixture to the appropriate wells in a microtiter plate and placing the plate on a 37° C. water bath. […] The acetylated glucosamine is measured by the Morgan and Elson color reaction (Morgan. W. T. J. & Elson, L. A. (1934).Biochem. J. 28, 988). […]

Where [1] appears, read: enzyme expressed in SF9 insect cells, glutamine 10 mM, fructose 6-phosphate 10 mM, 60 minutes at 37° C., read-out: IC50 for inhibition of GFAT-beta.

T2 sequence (Q06210 1-681 isoform Q06210-2): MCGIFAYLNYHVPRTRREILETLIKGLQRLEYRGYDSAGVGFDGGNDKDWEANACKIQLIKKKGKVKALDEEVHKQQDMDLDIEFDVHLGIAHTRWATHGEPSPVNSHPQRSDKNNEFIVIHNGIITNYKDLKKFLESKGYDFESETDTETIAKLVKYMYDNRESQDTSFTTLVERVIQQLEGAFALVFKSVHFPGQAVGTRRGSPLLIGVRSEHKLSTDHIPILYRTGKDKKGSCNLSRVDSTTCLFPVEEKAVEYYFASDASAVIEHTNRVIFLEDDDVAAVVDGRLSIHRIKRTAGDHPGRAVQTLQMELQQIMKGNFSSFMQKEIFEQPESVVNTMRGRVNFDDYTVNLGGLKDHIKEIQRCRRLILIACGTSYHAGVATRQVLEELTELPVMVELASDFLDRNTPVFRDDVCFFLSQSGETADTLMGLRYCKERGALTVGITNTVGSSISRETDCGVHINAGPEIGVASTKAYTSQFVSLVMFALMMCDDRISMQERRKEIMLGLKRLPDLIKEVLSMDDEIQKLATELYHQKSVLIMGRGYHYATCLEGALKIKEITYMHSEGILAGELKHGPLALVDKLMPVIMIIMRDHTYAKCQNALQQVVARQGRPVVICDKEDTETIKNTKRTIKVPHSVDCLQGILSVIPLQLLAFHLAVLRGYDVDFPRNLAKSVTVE
T1 sequence (O94808 whole entry): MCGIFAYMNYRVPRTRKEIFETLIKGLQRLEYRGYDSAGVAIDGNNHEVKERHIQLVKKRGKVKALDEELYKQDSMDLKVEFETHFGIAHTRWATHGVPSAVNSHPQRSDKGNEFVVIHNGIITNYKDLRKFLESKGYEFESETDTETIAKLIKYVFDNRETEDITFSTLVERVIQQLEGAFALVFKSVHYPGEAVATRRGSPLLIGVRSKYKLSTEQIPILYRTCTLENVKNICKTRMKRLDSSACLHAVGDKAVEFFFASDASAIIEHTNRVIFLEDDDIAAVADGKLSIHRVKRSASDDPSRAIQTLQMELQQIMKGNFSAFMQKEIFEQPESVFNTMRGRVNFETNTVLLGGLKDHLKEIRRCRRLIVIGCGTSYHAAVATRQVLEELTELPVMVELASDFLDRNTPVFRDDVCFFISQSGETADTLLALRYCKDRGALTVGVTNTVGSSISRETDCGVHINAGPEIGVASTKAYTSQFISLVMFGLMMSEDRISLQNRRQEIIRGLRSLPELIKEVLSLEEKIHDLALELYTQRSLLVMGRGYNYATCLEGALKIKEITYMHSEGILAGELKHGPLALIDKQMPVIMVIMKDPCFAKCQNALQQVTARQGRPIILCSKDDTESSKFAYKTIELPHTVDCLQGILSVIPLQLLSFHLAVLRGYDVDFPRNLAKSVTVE

One may read the IC50 as the concentration that inhibits the measured activity by half. On to “uridine-diphosphate-N-acetylglucosamine [UDP-N-acetylglucosamine]”, for which the IC50 was found to be 100 µM on GFAT-beta (setting [1]) and 8 µM on GFAT-alpha. Besides, the “times as much required to inhibit GFAT-beta compared with GFAT-alpha” value on GFAT-beta (ratio of IC50 GFAT-beta to IC50 GFAT-alpha) is recorded as “more than 12 times”.
For the molecule `N[C@@H](CNC(=O)CBr)C(=O)O` [N3-(bromoacetyl)-L-2,3-diaminopropanoic acid], the IC50 at GFAT-beta (setting [1]) is 0.27 µM; against GFAT-alpha, 0.38 µM.
Turning to `COC(=O)/C=C/C(=O)NC[C@H](N)C(=O)O` [FMDP, N3-(-4-methoxyflumaroyl)-L-2,3-diaminopropanoic acid], the results for the 50% inhibitory concentration (IC50) at GFAT-beta (setting [1]) and at GFAT-alpha were 2.3 µM and 4 µM, respectively.
In the case of `[N-]=[N+]=CC(=O)CC[C@H](N)C(=O)O` [DON, 6-diazo-5-oxo-L-norleucine], the concentration for half-maximal inhibition (IC50) against GFAT-beta and at GFAT-alpha was 18 µM throughout.
